Laboratory results taken from the supplement of paper PMC11451515.

System: SEM cells
Experiment: cell viability relative to DMSO control; higher = less cytotoxic
Conditions: 48 h
Method in brief: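 Viability values are per-plate percentages of DMSO wells, with background from cell-free wells. Library compounds in DMSO were pin-dosed, in an 11-point threefold series from 47 μM to 0.79 nM, onto NOMO1 or SEM (500 cells/well) or P12-Ichikawa (1000 cells/well) leukemia cells in 1536-well plates (5 μl). Those cells had been adapted for at least four passages in each medium, and CellTiter-Glo One luminescence was read after 48 h at 37°C.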

[1] = HPLM + 10% dialyzed FBS, 0.000781 µM
[2] = HPLM + 10% dialyzed FBS, 0.00234 µM
[3] = HPLM + 10% dialyzed FBS, 0.00702 µM
[4] = HPLM + 10% dialyzed FBS, 0.0211 µM
[5] = HPLM + 10% dialyzed FBS, 0.0632 µM
[6] = HPLM + 10% dialyzed FBS, 0.19 µM
[7] = HPLM + 10% dialyzed FBS, 0.569 µM
[8] = HPLM + 10% dialyzed FBS, 1.71 µM
[9] = HPLM + 10% dialyzed FBS, 5.12 µM
[10] = HPLM + 10% dialyzed FBS, 15.4 µM
[11] = HPLM + 10% dialyzed FBS, 46.1 µM
[12] = RPMI 5 mM glucose + 10% FBS, 0.000781 µM
[13] = RPMI 5 mM glucose + 10% FBS, 0.00234 µM
[14] = RPMI 5 mM glucose + 10% FBS, 0.00702 µM
[15] = RPMI 5 mM glucose + 10% FBS, 0.0211 µM
[16] = RPMI 5 mM glucose + 10% FBS, 0.0632 µM
[17] = RPMI 5 mM glucose + 10% FBS, 0.19 µM
[18] = RPMI 5 mM glucose + 10% FBS, 0.569 µM
[19] = RPMI 5 mM glucose + 10% FBS, 1.71 µM
[20] = RPMI 5 mM glucose + 10% FBS, 5.12 µM
[21] = RPMI 5 mM glucose + 10% FBS, 15.4 µM
[22] = RPMI 5 mM glucose + 10% FBS, 46.1 µM
[23] = RPMI 5 mM glucose + 10% dialyzed FBS, 0.000781 µM
[24] = RPMI 5 mM glucose + 10% dialyzed FBS, 0.00234 µM
[25] = RPMI 5 mM glucose + 10% dialyzed FBS, 0.00702 µM
[26] = RPMI 5 mM glucose + 10% dialyzed FBS, 0.0211 µM
[27] = RPMI 5 mM glucose + 10% dialyzed FBS, 0.0632 µM
[28] = RPMI 5 mM glucose + 10% dialyzed FBS, 0.19 µM
[29] = RPMI 5 mM glucose + 10% dialyzed FBS, 0.569 µM
[30] = RPMI 5 mM glucose + 10% dialyzed FBS, 1.71 µM
[31] = RPMI 5 mM glucose + 10% dialyzed FBS, 5.12 µM
[32] = RPMI 5 mM glucose + 10% dialyzed FBS, 15.4 µM
[33] = RPMI 5 mM glucose + 10% dialyzed FBS, 46.1 µM

Compound	cell viability [1] [%]	cell viability [2] [%]	cell viability [3] [%]	cell viability [4] [%]	cell viability [5] [%]	cell viability [6] [%]	cell viability [7] [%]	cell viability [8] [%]	cell viability [9] [%]	cell viability [10] [%]	cell viability [11] [%]	cell viability [12] [%]	cell viability [13] [%]	cell viability [14] [%]	cell viability [15] [%]	cell viability [16] [%]	cell viability [17] [%]	cell viability [18] [%]	cell viability [19] [%]	cell viability [20] [%]	cell viability [21] [%]	cell viability [22] [%]	cell viability [23] [%]	cell viability [24] [%]	cell viability [25] [%]	cell viability [26] [%]	cell viability [27] [%]	cell viability [28] [%]	cell viability [29] [%]	cell viability [30] [%]	cell viability [31] [%]	cell viability [32] [%]	cell viability [33] [%]
Fc1ccc(C(c2ccc(F)cc2)N2CCN(C/C=C/c3ccccc3)CC2)cc1	113	126	109	102	116	76.8	111	109	55.8	96.2	81.6	–	–	–	–	–	–	–	–	–	–	–	–	–	–	–	–	–	–	–	–	–	–
CC1(C)[C@@H](O[C@H]2O[C@H](C(=O)O)[C@@H](O)[C@H](O)[C@H]2O[C@@H]2O[C@H](C(=O)O)[C@@H](O)[C@H](O)[C@H]2O)CC[C@]2(C)[C@H]3C(=O)C=C4[C@@H]5C[C@@](C)(C(=O)O)CC[C@]5(C)CC[C@@]4(C)[C@]3(C)CC[C@@H]12	116	113	117	104	145	114	143	128	150	165	163	–	–	–	–	–	–	–	–	–	–	–	–	–	–	–	–	–	–	–	–	–	–
CCOC(=O)C/1=C(C)/NC(=S)NC1C2=CC=CC(=C2)O (centres undefined)	110	99.3	103	111	68.2	24.3	22.9	22.4	7.01	16	15.2	89.4	104	118	109	109	20.5	15.2	12	6.19	7.56	3.89	100	100	108	106	101	47.2	21.2	20.8	5.56	14.3	8.93
CN(N=O)C(=O)N[C@H]1C(O)OC(CO)[C@@H](O)[C@@H]1O (some centres undefined)	66.7	75.4	79.1	74.5	81.8	74.6	74	77.2	89.2	40.3	37.9	101	101	106	87.8	106	76.3	86.5	108	119	48.3	51.6	63.9	74	73.7	63.8	70.4	55.1	80.9	78.5	80.8	32.7	43.3
FC(F)(F)c1ccc(Nc2nc3cc(Oc4ccnc(-c5ncc(C(F)(F)F)[nH]5)c4)ccc3[nH]2)cc1	108	97.7	112	116	121	117	118	121	106	82.7	18.4	120	114	117	113	125	117	100	120	114	80.8	4.03	–	–	–	–	–	–	–	–	–	–	–
COc1ccc(/C=C\c2cc(OC)c(OC)c(OC)c2)cc1O	27.3	26.8	29.2	27.9	19.5	15.9	16.8	12.7	8.59	6.14	3.96	20	22.4	23	15.1	8.98	7.29	7.3	5.54	5.21	3.08	2.03	23.3	28.5	33.5	25.2	12.6	10.5	9.81	7.46	6.37	4.4	2.55
Cc1ccc(NC(=O)C2(c3ccc4c(c3)OC(F)(F)O4)CC2)nc1-c1cccc(C(=O)O)c1	106	87.4	109	111	93.5	13.7	16.4	16.7	9.88	9.04	6.17	87.2	86.6	91.6	91.5	62.6	11.1	10.5	10.5	8.17	7.53	5.47	97.9	98.3	97.7	107	71.9	14.9	13.2	16.6	9.71	8.66	6.45
CCC[C@@H]1C[C@@H](C(=O)N[C@@H]([C@H]2O[C@H](SC)[C@H](O)[C@@H](O)[C@H]2O)[C@@H](C)O)N(C)C1.Cl	125	121	118	109	119	127	114	122	103	117	91	110	114	105	99.3	120	110	130	111	111	111	97.4	113	119	141	118	136	133	132	137	125	104	116
